Each block holds one compound with its values, some of them ahead of it.
Columns and labels:
[1] = Crystal form transformation (polymorphic transition); type: physicochemical; settings: for crystal form transformation: in solvents such as ethanol
[2] = High-temperature stability test; type: physicochemical; settings: for Outward: colour
Method: (§1) • (1) High-Temperature Test: Place an appropriate amount of the test sample in a flat weighing bottle, spreading it into a thin layer ≤5 mm thick. Store at 60°C ± 2°C for 30 days. Collect samples at 0, 5, 10, and 30 days for analysis according to the key stability test items. Observe any color changes and determine purity by HPLC. • (2) High-Humidity Test: Place an appropriate amount of the test sample from one batch in a flat weighing bottle, spreading it into a thin layer ≤5 mm thick. Store at 25°C and 90% ± 5% relative humidity (RH) for 30 days. Collect samples at 0, 5, 10, and 30 days for analysis according to the key stability test items. Observe any color changes and determine purity by HPLC. • (3) Light-Exposure Test: Expose the sample to visible light (4500 lx ± 500 lx) and UV light (energy ≥0.7 W·h/m^2) for 30 days. Collect samples at 0, 5, 10, 15, and 30 days for analysis according to the key stability test items. Observe any color changes and determine purity by HPLC. • (4) Accelerated Test: Package an appropriate amount of the test sample from one batch in single-layer PE with aluminum foil. Store at 40°C ± 2°C / 75% ± 5% RH for […]. Collect samples at 0, 1, 2, 3, and 6 months for analysis according to the key stability test items. Observe any color changes and determine purity by HPLC.

[3] = High-humidity stability test; type: physicochemical; settings: 25°C, 90% ± 5% RH, 30 day; for Outward: colour
Method: as §1

[4] = Light-exposure stability test; type: physicochemical; settings: 30 day; for Outward: colour
Method: as §1

[5] = Accelerated stability test; type: physicochemical; settings: 40°C ± 2°C / 75% ± 5% RH; for Outward: colour
Method: as §1

[6] = Hygroscopicity test by dynamic vapor sorption (DVS); type: physicochemical
Method: The hygroscopicity of the present invention was determined using a DVS INT-Std dynamic vapor and gas sorption analyzer from Surface Measurement Systems Ltd. (UK) with the following parameters: humidity test range: 0%-95%, gas flow: 200 mL/min, temperature: 25°C, test points: one measurement point every 5% humidity increase.
An appropriate amount of the test sample was taken, and its hygroscopicity was measured using a dynamic vapor sorption (DVS) instrument. The classification criteria for hygroscopicity characteristics and moisture absorption weight gain (as per Appendix 9103 "Guidelines for Hygroscopicity Testing of Drugs" from the Chinese Pharmacopoeia 2020 Edition, test conditions: 25°C ± 1°C, 80% ± 2% relative humidity (RH)) are described in Table 3 below: Table 3 The description of the hygroscopicity feature and the definition of the hygroscopicity gain

[7] = Pharmacokinetics test, oral capsules; type: in vivo; settings: male Beagle dogs, 5 mg/kg, figures not given
Method: Male Beagle dogs of 8-12 kg were divided into 3 groups, 3 dogs in each group, and capsules containing test samples were orally administered at a dose of 5 mg/kg, and blood was collected at time points of 0.25, 0.5, 1.0, 2.0, 4.0, 6.0, 8.0 and 24 h. Standard curve was plotted based on concentrations of the samples in a suitable range, the concentration of the test sample in the plasma sample was measured and quantified by AB SCIEX API4000-type LC-MS / MS at MRM mode. Pharmacokinetic parameters were calculated according to drug concentration -time curve using a noncompartmental method by WinNonLin 6.3 software.

Solubility test (HPLC) = type: physicochemical; settings: figures not given
Method: The solubility of the present invention was determined using an Agilent 1200 High Performance Liquid Chromatograph DAD/VWD detector with an Agilent XDB-C18 model (4.6 x 50 mm, 5 µm). Detection wavelength of 266 nm, flow rate of 1.0 mL/min, the column temperature of 35 °C, mobile phase A: acetonitrile - 0.01 M ammonium acetate = 10:90 (V: V) analysis methods: acetonitrile - mobile phase A= 70:30 (V: V), running time: 10 minutes.

[8] = Accelerated stability test; type: physicochemical; settings: 40°C ± 2°C / 75% ± 5% RH, 6 month
[9] = 0 day, common start value of the high-temperature, high-humidity and light-exposure tests, HPLC
[10] = 0 day, common start value of the three tests
[11] = High-Temperature, 60°C ± 2°C, 30 day

crystal form transformation [1]: transform into Crystal form II
Structure (SMILES): COC(=O)Nc1c(N)nc(-c2nn(Cc3ccccc3F)c3c(F)cccc23)nc1N [Crystal Form I, methyl (4,6-diamino-2-(7-fluoro-1-(2-fluorobenzyl)-1H-indazol-3-yl)pyrimidin-5-yl)carbamate]

Purity (%) [2, 9]: 99.97% | Outward [2, 10]: Off-white | Outward [2, 11]: Off-white | stability ([2]; conclusion over various storage conditions (high-temperature, high-humidity, light-exposure and accelerated tests)): excellent stability | remaining at 720 h ([2]; solid storage, High-Temperature, 60°C ± 2°C, 30 day, HPLC, read-out: Purity (%)): 99.9% | Outward [3]: Off-white | remaining at 720 h ([3]; solid storage, 90% rh, HPLC, read-out: Purity (%)): 100% | Outward [4]: Pale yellow | remaining at 720 h ([4]; solid storage, light exposure, visible light 4500 lx ± 500 lx and UV light, HPLC, read-out: Purity (%)): 99.9% | Purity (%) ([5]; 0 day): 99.96% | Outward ([5]; 0 day): Off-white | Outward ([5]; 1 month): Off-white | Outward ([5]; 2 month): Off-white | Outward ([5]; 3 month): Off-white | remaining at 720 h ([5]; solid storage, 75% rh, 1 month, read-out: Purity (%)): 100% | remaining at 1440 h ([5]; solid storage, 75% rh, 2 month, read-out: Purity (%)): 100% | remaining at 2160 h ([5]; solid storage, 75% rh, 3 month, read-out: Purity (%)): 100% | Weight Gain at 60% RH (%) ([6]; DVS, 25°C, 60% RH): 0.02% | Weight Gain at 80% RH (%) ([6]; DVS, 25°C, 80% RH): 0.05% | Weight Gain at 95% RH (%) ([6]; DVS, 25°C, 95% RH): 0.18% | the hygroscopicity feature ([6]; classification per Chinese Pharmacopoeia 2020, 25°C ± 1°C, 80% ± 2% RH): no or negligible hygroscopicity | deliquescence ([6]; under high humidity conditions): not prone to deliquescence | pharmacokinetic properties [7]: excellent pharmacokinetic properties | stability of the crystal structure ([1]; in contrast to the other crystal forms): less prone to polymorphic transition | solubility (Solubility test (HPLC)): good solubility | Outward ([8]; colour): Off-white | remaining at 4320 h ([8]; solid storage, 75% rh, read-out: Purity (%)): 99.9%
Structure (SMILES): COC(=O)Nc1c(N)nc(-c2nn(Cc3ccccc3F)c3c(F)cccc23)nc1N [Crystal Form II, methyl (4,6-diamino-2-(7-fluoro-1-(2-fluorobenzyl)-1H-indazol-3-yl)pyrimidin-5-yl)carbamate]

Purity (%) [2, 9]: 99.52% | Outward [2, 10]: Off-white | Purity (%) ([2]; High-Temperature, 60°C ± 2°C, 30 day, HPLC, 43200 min): 99.47% | Outward [2, 11]: Off-white | Purity (%) ([3]; HPLC, 43200 min): 99.51% | Outward [3]: Off-white | Outward [4]: Pale yellow | Purity (%) ([4]; visible light 4500 lx ± 500 lx and UV light, HPLC, 43200 min): 99.36% | crystal form transformation [1]: transform into Crystal form II | polymorphic transition ([1]; under high temperature conditions): undergoes polymorphic transition
Structure (SMILES): COC(=O)Nc1c(N)nc(-c2nn(Cc3ccccc3F)c3c(F)cccc23)nc1N [Crystal Form V, methyl (4,6-diamino-2-(7-fluoro-1-(2-fluorobenzyl)-1H-indazol-3-yl)pyrimidin-5-yl)carbamate]

Source: patent EP4640676A1, “CRYSTAL FORM OF FLUORINE-SUBSTITUTED INDAZOLE COMPOUND AND USE THEREOF” (Sunshine Lake Pharma Co., Ltd., priority 2022, dated 2024)
